Results on two compounds are retold here after ChEMBL document CHEMBL1268857, “Dolabellane Diterpenoids from the South Atlantic Gorgonian Convexella magelhaenica” (J Nat Prod, 2010).

As usually defined, the IC50 is the concentration at which inhibition is half-maximal. Read a high IC50 as weaker potency in that assay.

Test [1] is described as follows: Cytotoxicity against mouse LM3 cells. Format: functional, cell-based.
Test [2] deals with PANC-1. The experiment in a line: Cytotoxicity against human PANC1 cells. It is filed as functional, cell-based.

`C=C(C)[C@@H]1[C@@H](OC(C)=O)C[C@]2(C)[C@H](OC(C)=O)/C=C(\C)CC/C=C(\C)C(=O)C[C@@H]12`: the figures for the IC50 in test [1] and in test [2] were 17.8 µM and 398 µM, respectively.
Regarding `C=C(C)[C@@H]1CC[C@]2(C)C/C=C(\C)CC/C=C(\C)C(=O)C[C@@H]12`, the values for the concentration for half-maximal inhibition (IC50) in test [1] and in test [2] were 2.5 µM and 39.8 µM, respectively.
